In patent US12419869B2, “Methods of treating multiple sclerosis” (Vanda Pharmaceuticals Inc., priority 2021, dated 2025):
Where “and” joins values, the source holds several entries; their conditions need not be identical. Equal values may be shown once.

Legend:
Assay type in all cases: in vivo, human
[1] = test system: Patients (18-55 years) with RMS; assay: No evidence of disease activity (NEDA-3) status, baseline to week 108
Experimental: (§1) Patients (18-55 years) with RMS (expanded disability status scale scores: 0-5.5) were randomized (1:1) to receive ponesimod (PON) 20 mg or teriflunomide (TER) 14 mg for 108 weeks. MRI assessments were: volume of T2 lesions; mean number of new gadolinium-enhancing (Gd+) T1 lesions and new/enlarging T2 lesions; and absence of active MRI lesions at week 108. NEDA-3 status (absence of confirmed relapse, Gd+T1 lesions and new/enlarging T2 lesions on annual MRIs, and 12-week confirmed disability accumulation) was evaluated from baseline to week 108.

[2] = test system: adult subjects with relapsing MS; assay: Brain MRI lesions (CUAL, Gd+ T1, new/enlarging T2) from baseline to Week 108; conditions: for CUAL mean estimate (Lesions per year): baseline to Week 108, negative binomial regression, Full Analysis Set
Experimental: CUAL are new Gd+T1 lesions plus new or enlarging T2 lesions (without double-counting of lesions).
MRI scans were performed at Visits 2 (Baseline), 10 (Week 60), and 14 (EOT) and at any unscheduled visit (U1, U2, etc.). If applicable, MRI scans also were performed at the corresponding visits in the PTOP (Visits 10A and 14A). Testing at all visits were performed up to 7 days prior to or after the visit date.
MRI variables included the number and volume of new and total Gd+ lesions on T1-weighted MRI scans, number of new and enlarging lesions and lesion volume on T2-weighted MRI, and global measures of loss of brain tissue.
T1-weighted imaging before and after i.v. administration of 0.1 mmol/kg body weight (=0.2 mL/kg) of Gd as well as PD-T2-weighted imaging was performed. Gd may cause nausea and vomiting and in very rare cases allergic reactions that could require immediate anti-anaphylactic therapy (such as steroids, epinephrine/adrenaline, etc.).
as §1

[3] = test system: adult subjects with relapsing MS; assay: Confirmed relapses / annualized relapse rate up to EOS, phase III study ponesimod 20 mg vs teriflunomide 14 mg
Experimental: Primary efficacy variable/primary timepoint: The primary endpoint was annualized relapse rate (ARR) up to the end of study (EOS) defined as the number of confirmed relapses per subject-year. All available data up to EOS, regardless of treatment discontinuation was included (ITT approach).
The primary statistical analysis of the ARR endpoint was performed on the FAS using a negative binomial model for confirmed relapses, with the stratification variables prior use of disease-modifying therapies (DMTs) and EDSS category as well as the number of relapses in the year prior to study entry, included in the model and time in the study as an offset variable. Sensitivity analyses was performed on the PPS and also based on different subgroups derived from baseline variables.
A relapse is defined as new, worsening or recurrent neurological symptoms that occur at least 30 days after the onset of a preceding relapse, and that last at least 24 hours, in the absence of fever or infection.
A relapse was confirmed by the treating neurologist only when the subjects' symptoms were accompanied by an increase in EDSS/FS (functional system) scores, which were consistent with the subject's symptoms, from a previous clinically stable EDSS/FS assessment (i.e., performed at least 30 days after the onset of any previous relapse), obtained by the efficacy assessor and consistent with the following: • An increase of at least half a step (0.5 points; unless EDSS=0, then an increase of at least 1.0 points is required) or • An increase of at least 1.0 point in at least two FS scores, or • An increase of at least 2.0 points in at least one FS score (excluding bladder/bowel and cerebral).
The primary statistical analysis was performed up to EOS on the FAS using a negative binomial regression model for confirmed relapses, with treatment as a factor and the binary stratification variables (EDSS≤3.5 versus EDSS>3.5; DMTs within last 2 years prior to randomization [Yes/No]) and the number of relapses in the year prior to study entry (categories≤1 (or missing) and […]) included in the model. The model also included an offset variable defined as the log of time on study (in years) from randomization up to EOS.

[4] = test system: adult subjects with relapsing MS; assay: Treatment-emergent adverse events and premature treatment discontinuation, phase III study (Study 1); conditions: in vivo
Experimental: A total of 1438 MS patients have received PONVORY at doses of at least 2 mg daily. These patients were included in Study 1 (2-year active-controlled versus teriflunomide 14 mg) [see Clinical Studies (14)] and in a Phase 2 (6-month placebo-controlled) study in patients with MS and the uncontrolled extension studies.

CCC/N=C1\S/C(=C\c2ccc(OC[C@H](O)CO)c(Cl)c2)C(=O)N1c1ccccc1C [Ponesimod, (R)-5-[3-chloro-4-(2,3-dihydroxy-propoxy)-benz[Z]ylidene]-2-([Z]-propylimino)-3-o-tolyl-thiazolidin-4-one]
Odds ratio PON vs TER for NEDA-3 [1]: 1.70
Patients achieving NEDA-3 [1]: 28.2%
CUAL mean estimate (Lesions per year) [2]: 1.405 lesions per year
CUAL mean estimate (Lesions per year) ([2]; listed as ponesimod): 1.405 lesions per year
CUAL treatment effect (Rate Ratio) ponesimod vs teriflunomide ([2]; baseline to week 108): 0.444 and 0.44
LS mean difference (PON-TER) in change from baseline in total volume of T2 lesions ([2]; baseline to week 108): −399.2 mm^3
Mean number of new Gd+ T1 lesions per scan / per MRI ([2]; baseline to week 108): 0.18
Mean number of new/enlarging T2 lesions per year ([2]; baseline to week 108): 1.40
Rate ratio, new Gd+ T1 lesions per scan, PON vs TER ([2]; baseline to week 108): 0.42
Rate ratio, new/enlarging T2 lesions per year, PON vs TER ([2]; baseline to week 108): 0.44
Raw mean lesions/year (CUAL) ([2]; baseline to week 108): 1.559 lesions/year
Reduction of number of CUALs compared to teriflunomide 14 mg ([2]; baseline to week 108): 56%
Total number of lesions (CUAL) ([2]; baseline to week 108): 1671
Relative reduction, T1 Gd-enhancing lesions per MRI ([2]; vs teriflunomide 14 mg): 58.5% (p < 0001)
Relative reduction, new or enlarging T2 hyperintense lesions per year ([2]; vs teriflunomide 14 mg): 55.7% (p < 0001)
Odds ratio PON vs TER for absence of new Gd+ T1 lesions ([2]; week 108): 2.18
Odds ratio PON vs TER for absence of new/enlarging T2 lesions ([2]; week 108): 1.71
Raw ARR ([3]; Full Analysis Set, up to EOS): 0.216
Total number of relapses ([3]; Full Analysis Set, up to EOS): 242
Treatment effect (rate ratio) on ARR, ponesimod vs teriflunomide ([3]; Full Analysis Set, up to EOS): 0.695
Mean estimate (ARR), confirmed relapses up to EOS ([3]; negative binomial regression, Full Analysis Set, teriflunomide 14 mg, ponesimod 20 mg): 0.202
Percentage of patients without relapse ([3]; study period of approximately 108 weeks): 70.7%
Relative reduction of ARR compared to teriflunomide 14 mg ([3]; up to EOS): 30.5%
Day 1 AESI Atrioventricular block first degree ([4]; human): (0.5) %
Day 1 AESI Bradycardia ([4]; human): (0.7) %
Day 1 AESI Bundle branch block left ([4]; human): (0.2) %
Day 1 AESI Bundle branch block right ([4]; human): (0.2) %
Day 1 AESI Defect conduction intraventricular ([4]; human): (0.4) %
Day 1 AESI Sinus arrhythmia ([4]; human): (0.2) %
Day 1 AESI Sinus bradycardia ([4]; human): (0.2) %
AE leading to discontinuation, SOC Blood and lymphatic system disorders ([4]; human, 2 year): (0.5) %
AE leading to discontinuation, SOC Cardiac disorders ([4]; human, 2 year): (0.2) %
AE leading to discontinuation, SOC Eye disorders ([4]; human, 2 year): (0.9) %
AE leading to discontinuation, SOC Gastrointestinal disorders ([4]; human, 2 year): (0.7) %
AE leading to discontinuation, SOC General disorders and administration site conditions ([4]; human, 2 year): (0.5) %
AE leading to discontinuation, SOC Hepatobiliary disorders ([4]; human, 2 year): (0.5) %
AE leading to discontinuation, SOC Investigations ([4]; human, 2 year): (2.1) %
AE leading to discontinuation, SOC Musculoskeletal and connective tissue disorders ([4]; human, 2 year): (0.2) %
AE leading to discontinuation, SOC Neoplasms benign, malignant and unspecified (incl cysts and polyps) ([4]; human, 2 year): (0.2) %
AE leading to discontinuation, SOC Nervous system disorders ([4]; human, 2 year): (0.4) %
AE leading to discontinuation, SOC Pregnancy, puerperium and perinatal conditions ([4]; human, 2 year): (0.5) %
AE leading to discontinuation, SOC Psychiatric disorders ([4]; human, 2 year): (0.2) %
AE leading to discontinuation, SOC Respiratory, thoracic and mediastinal disorders ([4]; human, 2 year): (1.2) %
AE leading to discontinuation, SOC Skin and subcutaneous tissue disorders ([4]; human, 2 year): (0.2) %
AE leading to discontinuation, SOC Social circumstances ([4]; human, 2 year): (0.4) %
AE leading to discontinuation, SOC Vascular disorders ([4]; human, 2 year): (0.5) %
AESI Effect on heart rate and rhythm (including hypotension) ([4]; human, 2 year): (5.1) %
AESI Non-skin malignancy ([4]; human, 2 year): (0.2) %
AESI Skin malignancy ([4]; human, 2 year): (0.9) %
Discontinuation reason: Physician decision, Adverse event ([4]; human, 2 year): (5.1) %
Discontinuation reason: Pre-specified study treatment discontinuation criteria ([4]; human, 2 year): (2.1) %
Discontinuation reason: Subject decision, Tolerability related ([4]; human, 2 year): (1.4) %
Incidence of basal cell carcinoma ([4]; human, 2 year): 0.4%
Overall rate of infections ([4]; human, 2 year): 54.2%
Subjects discontinued due to AEs or tolerability related reasons ([4]; human, 2 year): 6.5%
Subjects who prematurely discontinued study treatment ([4]; human, 2 year): (16.6) %
Subjects with at least one Drug-Related AE ([4]; human, 2 year): (49.2) %
Subjects with at least one Severe AE ([4]; human, 2 year): (6.9) %
TEAE ALT increased ([4]; human, 2 year): 19.5%
TEAE headache ([4]; human, 2 year): 11.5%
TEAE nasopharyngitis ([4]; human, 2 year): 19.3%
TEAE upper respiratory tract infection ([4]; human, 2 year): 10.6%
Adverse reaction: C-reactive protein increased ([4]; human, 2 years): 2%
Adverse reaction: Cough ([4]; human, 2 years): 4%
Adverse reaction: Dizziness ([4]; human, 2 years): 5%
Adverse reaction: Dyspnea ([4]; human, 2 years): 5%
Adverse reaction: Hepatic transaminase elevation ([4]; human, 2 years): 23%
Adverse reaction: Hypercholesterolemia ([4]; human, 2 years): 2%
Adverse reaction: Hypertension ([4]; human, 2 years): 10%
Adverse reaction: Pain in extremity ([4]; human, 2 years): 4%
Adverse reaction: Pyrexia ([4]; human, 2 years): 2%
Adverse reaction: Somnolence ([4]; human, 2 years): 3%
Adverse reaction: Urinary tract infection ([4]; human, 2 years): 6%
Adverse reaction: Vertigo ([4]; human, 2 years): 2%
Discontinuation reason: Lost to follow-up [4]: (0.4) %
Discontinuation reason: Physician decision [4]: (7.1) %
Discontinuation reason: Physician decision, Lack of efficacy/treatment failure [4]: (0.7) %
Discontinuation reason: Physician decision, Other [4]: (1.2) %
Discontinuation reason: Reason not provided [4]: (0.2) %
Discontinuation reason: Subject decision [4]: (6.9) %
Discontinuation reason: Subject decision, Efficacy related [4]: (1.2) %
Discontinuation reason: Subject decision, Not known [4]: (0.9) %
Discontinuation reason: Subject decision, Other [4]: (3.4) %
